Data taken from patent US9475814B2, “Chiral N-acyl-5,6,7(8-substituted)-tetrahydro-[1,2,4]triazolo[4,3-a]pyrazines as selective NK-3 receptor antagonists, pharmaceutical composition, methods for use in NK-3 receptor mediated disorders and chiral synthesis thereof” (Euroscreen S.A., priority 2011, dated 2016).
Where two headings read alike, the source gives them in different places.

Assays:
[1] = system: circulating levels of luteinizing hormone (LH); assay: Castrated male rat model, circulating luteinizing hormone (LH); type: in vivo; conditions: single intravenous 10 mg/kg dose, castrated male Sprague-Dawley rats, 1 hour after dosing
From the text: Castrated Male Rat Model to Assess the Effect of Compound of Invention on Circulating Levels of Luteinizing Hormone (LH).
In humans and rodents, castration is well-precedented to permit heightened, persistent GnRH signaling and consequent elevation of circulating LH. Thus, a castrated rat model is used to provide a broad index for measurement of LH inhibition as a marker of test compound inhibition of the GnRH signaling pathway.
Castrated adult male Sprague-Dawley (SD) rats (150-175 g) were purchased from Janvier (St Berthevin, France). […] The animals were allowed 2 weeks of postoperative recovery prior to study. Animals were handled on a daily basis. Standard diet and tap water were provided ad libitum. Animal cage litters were changed once a week. On the study day, animals were acclimated to the procedure room for a period of one hour prior to the initiation of the experiment.
Compounds of the invention were formulated as apyrogen water with 90 g/L (2-Hydroxypropyl)-β-CycloDextrin.
After basal sampling (T0) a single dose of compounds of the invention or vehicle was administrated intravenously to rats. Blood was then collected at 60 min post dosing. Blood samples were obtained via tail vein bleed, drawn into EDTA-containing tubes and centrifuged immediately. […] Serum LH levels were determined using radioimmunoassay kit from RIAZEN—Rat LH, Zentech (Liège, Belgium). […]

[2] = system: circulating levels of testosterone; assay: Gonad-intact adult male rat, circulating testosterone; type: in vivo; conditions: single intravenous 50 mg/kg dose, gonad-intact male Sprague-Dawley rats, over the 210 minute test period (AUC)
[3] = target: human NK1 receptor (Homo sapiens (Human), UniProt P25103); assay: Human NK1 [3H] substance P binding assay (selectivity)
Chain of human NK1 receptor (P25103 whole entry): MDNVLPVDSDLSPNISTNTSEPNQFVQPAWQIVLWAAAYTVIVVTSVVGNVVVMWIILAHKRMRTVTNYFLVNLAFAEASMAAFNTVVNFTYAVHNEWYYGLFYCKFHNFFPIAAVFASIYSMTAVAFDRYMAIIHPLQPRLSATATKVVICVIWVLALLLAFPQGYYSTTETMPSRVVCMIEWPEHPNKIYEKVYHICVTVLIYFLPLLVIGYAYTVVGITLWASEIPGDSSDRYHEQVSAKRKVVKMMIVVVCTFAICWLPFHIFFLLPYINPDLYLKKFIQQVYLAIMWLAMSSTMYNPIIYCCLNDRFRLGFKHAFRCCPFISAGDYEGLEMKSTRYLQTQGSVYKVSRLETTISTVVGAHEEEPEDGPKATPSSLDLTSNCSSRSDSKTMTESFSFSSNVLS

[4] = target: human NK2 receptor (Homo sapiens (Human), UniProt P21452); assay: Human NK2 [125I]-Neurokinin A binding assay (selectivity)
Chain of human NK2 receptor (P21452 whole entry): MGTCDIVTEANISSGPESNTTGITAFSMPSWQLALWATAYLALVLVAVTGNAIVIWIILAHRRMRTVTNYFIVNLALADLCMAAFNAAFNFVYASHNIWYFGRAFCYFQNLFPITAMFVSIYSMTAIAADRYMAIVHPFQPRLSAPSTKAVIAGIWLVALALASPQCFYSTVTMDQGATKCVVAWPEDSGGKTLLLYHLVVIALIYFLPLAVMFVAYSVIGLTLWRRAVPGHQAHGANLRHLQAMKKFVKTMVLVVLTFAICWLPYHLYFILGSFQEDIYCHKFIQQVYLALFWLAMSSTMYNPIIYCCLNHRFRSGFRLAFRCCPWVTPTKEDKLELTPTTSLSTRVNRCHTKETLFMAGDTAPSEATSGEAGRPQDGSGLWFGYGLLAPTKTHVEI

[5] = target: hERG channel (Homo sapiens (Human), UniProt Q12809); assay: hERG inhibition assay (manual patch-clamp, HEK 293 cells)
Chain of hERG channel (Q12809 whole entry): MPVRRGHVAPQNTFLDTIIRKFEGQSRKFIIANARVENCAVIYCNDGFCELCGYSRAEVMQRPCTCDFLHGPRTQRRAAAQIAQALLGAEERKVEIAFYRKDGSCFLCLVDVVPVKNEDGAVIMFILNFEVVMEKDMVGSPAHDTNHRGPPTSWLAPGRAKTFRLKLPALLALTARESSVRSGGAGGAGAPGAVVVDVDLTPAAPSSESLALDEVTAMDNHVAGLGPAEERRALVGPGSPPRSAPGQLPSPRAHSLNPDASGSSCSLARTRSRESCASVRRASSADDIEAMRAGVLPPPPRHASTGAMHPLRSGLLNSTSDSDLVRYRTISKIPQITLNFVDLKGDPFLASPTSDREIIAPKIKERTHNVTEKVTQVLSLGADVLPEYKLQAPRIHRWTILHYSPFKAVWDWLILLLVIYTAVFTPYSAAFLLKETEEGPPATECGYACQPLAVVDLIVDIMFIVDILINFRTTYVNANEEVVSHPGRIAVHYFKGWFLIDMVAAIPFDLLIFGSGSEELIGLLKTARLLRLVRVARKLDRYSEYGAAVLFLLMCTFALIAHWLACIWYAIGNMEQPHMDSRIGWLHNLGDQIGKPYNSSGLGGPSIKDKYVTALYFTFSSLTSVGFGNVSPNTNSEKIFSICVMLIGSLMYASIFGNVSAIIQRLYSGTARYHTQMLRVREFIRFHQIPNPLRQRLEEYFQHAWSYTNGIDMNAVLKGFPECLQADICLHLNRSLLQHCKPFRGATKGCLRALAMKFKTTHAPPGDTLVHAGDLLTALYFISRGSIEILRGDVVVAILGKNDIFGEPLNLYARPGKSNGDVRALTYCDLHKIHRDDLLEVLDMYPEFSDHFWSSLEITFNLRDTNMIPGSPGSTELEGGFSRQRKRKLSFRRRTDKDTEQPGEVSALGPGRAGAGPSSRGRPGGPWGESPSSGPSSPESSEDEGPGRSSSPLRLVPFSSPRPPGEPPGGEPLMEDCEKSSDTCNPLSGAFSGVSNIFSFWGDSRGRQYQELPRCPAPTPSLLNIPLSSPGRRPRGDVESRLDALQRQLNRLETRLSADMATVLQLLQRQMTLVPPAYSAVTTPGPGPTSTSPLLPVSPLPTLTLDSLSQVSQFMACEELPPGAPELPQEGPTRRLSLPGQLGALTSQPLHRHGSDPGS

[6] = target: T1, human NK-3 receptor (Homo sapiens (Human), UniProt P29371); assay: Aequorin functional assay with human NK-3 receptor (antagonist testing vs NKA); type: cell-based; conditions: inhibition of NKA (3 nM, EC80) response, CHO cells expressing human NK3 receptor and apoaequorin
T1 sequence (P29371 whole entry): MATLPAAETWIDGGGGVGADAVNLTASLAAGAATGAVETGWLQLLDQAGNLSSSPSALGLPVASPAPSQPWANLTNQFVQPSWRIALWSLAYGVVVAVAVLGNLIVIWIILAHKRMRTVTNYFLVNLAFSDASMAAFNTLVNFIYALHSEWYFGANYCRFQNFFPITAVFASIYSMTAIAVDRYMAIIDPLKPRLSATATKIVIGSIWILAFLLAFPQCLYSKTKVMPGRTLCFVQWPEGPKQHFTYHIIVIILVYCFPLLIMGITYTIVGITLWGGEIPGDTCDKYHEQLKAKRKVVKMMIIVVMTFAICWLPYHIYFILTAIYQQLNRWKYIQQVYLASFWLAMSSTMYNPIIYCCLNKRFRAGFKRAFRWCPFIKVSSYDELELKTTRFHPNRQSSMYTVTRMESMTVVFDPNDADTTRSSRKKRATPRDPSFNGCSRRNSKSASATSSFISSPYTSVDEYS

[7] = target: T1, human NK-3 receptor; assay: 3H-SB222200 binding competition assay with human NK-3 receptor
Procedure: ^3H-SB222200 Binding Competition Assay with Human NK-3 Receptor
The membranes were incubated with 5 nM ^3H-SB222200(ARC) in a HEPES 25 mM/NaCl 0.1M/CaCl2 1 mM/MgCl2 5 Mm/BSA 0.5%/Saponin 10 μg/ml buffer at pH 7.4 and various concentrations of compounds of the invention. The amount of ^3H-SB222200 bound to the receptor was determined after filtration by the quantification of membrane associated radioactivity using the TopCount-NXT reader (Packard).

[8] = read-out: NK1 Ki, CHO membranes, 2 nM [3H] substance P
[9] = read-out: NK2 Ki, CHO membranes, 0.1 nM [125I]-Neurokinin A
[10] = Table 6, membranes of CHO cells expressing human NK3 receptor, 5 nM 3H-SB222200, read-out: Ki
[11] = Table 7, human NK-3 receptor, read-out: NK3 Ki
[12] = read-out: NK1 Ki, for the racemate, value measured for the racemate of the numbered compound
[13] = read-out: NK2 Ki, for the racemate, value measured for the racemate of the numbered compound

In the case of `Cc1nc(-c2nnc3n2CCN(C(=O)c2ccc(-c4cccs4)cc2)[C@@H]3C)cs1` [Compound 1, (R)-(8-methyl-3-(2-methylthiazol-4-yl)-5,6-dihydro-[1,2,4]triazolo[4,3-a]pyrazin-7(8H)-yl) (4-(thiophen-2-yl)phenyl)methanone], the “circulating LH levels” value [1] is reported as “significantly suppressed circulating LH levels”, the plasma testosterone levels [2] is reported as “significantly suppressed plasma testosterone levels” and the Ki [3, 8] is reported as 12700 nM. The Ki [4, 9] was 14000 nM and the IC50 [5] was > 30000 nM.

Work on `Cc1nc(-c2nnc3n2CCN(C(=O)c2ccc(-c4cccs4)cc2)C3)cs1` [Compound 3, (3-(2-methylthiazol-4-yl)-5,6-dihydro-[1,2,4]triazolo[4,3-a]pyrazin-7(8H)-yl)(4-(thiophen-2-yl)phenyl)methanone] yielded an IC50 [6] of 83 nM, a Ki [7, 10] of 83 nM and a Ki [7, 11] of 83 nM. The Ki [3, 8] was > 10000 nM, the Ki [4, 9] was > 10000 nM and the IC50 [5] was 26000 nM.

`O=C(c1ccc(-c2cccs2)cc1)N1CCn2c(nnc2-c2csc(C(F)(F)F)n2)C1` [Compound 4, (4-(thiophen-2-yl)phenyl)(3-(2-(trifluoromethyl)thiazol-4-yl)-5,6-dihydro-[1,2,4]triazolo[4,3-a]pyrazin-7(8H)-yl)methanone] was tested, and the IC50 [6] was 50 nM, the Ki [7, 10] was 56 nM and the IC50 [5] was > 30000 nM.

Work on `Cc1nc(-c2nnc3n2CCN(C(=O)c2ccc(-c4cccs4)cc2)[C@@H]3C)co1` [Compound 11, (R)-(8-methyl-3-(2-methyloxazol-4-yl)-5,6-dihydro-[1,2,4]triazolo[4,3-a]pyrazin-7(8H)-yl)(4-(thiophen-2-yl)phenyl)methanone] yielded an IC50 [6] of 34 nM, a Ki [7, 10] of 44 nM and a Ki [7, 11] of 44 nM. The Ki [3, 8] was > 10000 nM, the Ki [4, 9] was > 10000 nM and the IC50 [5] was > 30000 nM.

`Cc1nc(-c2nnc3n2CCN(C(=O)c2ccc(-c4cccs4)cc2)[C@@H]3C)c(C)s1` [Compound 16, (R)-(3-(2,5-dimethylthiazol-4-yl)-8-methyl-5,6-dihydro-[1,2,4]triazolo[4,3-a]pyrazin-7(8H)-yl)(4-(thiophen-2-yl)phenyl)methanone] was tested, and the IC50 [6] was 30 nM and the Ki [7, 10] was 32 nM.

Work on `C[C@@H]1c2nnc(-c3csc(N(C)C)n3)n2CCN1C(=O)c1ccc(-c2cccs2)cc1` [Compound 17, (R)-(3-(2-(dimethylamino)thiazol-4-yl)-8-methyl-5,6-dihydro-[1,2,4]triazolo[4,3-a]pyrazin-7(8H)-yl)(4-(thiophen-2-yl)phenyl)methanone] yielded an IC50 [6] of 7 nM, a Ki [7, 10] of 7 nM and a Ki [7, 11] of 7 nM. For the same compound, the Ki [3, 12] was 6060 nM and the Ki [4, 13] was 9950 nM.

In the case of `CC(C)c1nc(-c2nnc3n2CCN(C(=O)c2ccc(-c4cccs4)cc2)C3)cs1` [Compound 18, (3-(2-isopropylthiazol-4-yl)-5,6-dihydro-[1,2,4]triazolo[4,3-a]pyrazin-7(8H)-yl)(4-(thiophen-2-yl)phenyl)methanone], the IC50 [6] is reported as 10 nM and the Ki [7, 10] is reported as 20 nM.

`Cc1csc(-c2nnc3n2CCN(C(=O)c2ccc(-c4cccs4)cc2)[C@@H]3C)n1` [Compound 19, (R)-(8-methyl-3-(4-methylthiazol-2-yl)-5,6-dihydro-[1,2,4]triazolo[4,3-a]pyrazin-7(8H)-yl)(4-(thiophen-2-yl)phenyl)methanone] was tested, and the IC50 [6] was 8 nM, the Ki [7, 10] was 6 nM and the “circulating LH levels” value [1] was “significantly suppressed circulating LH levels”.

`Cc1csc(-c2nnc3n2CCN(C(=O)c2ccc(-c4ccccc4)cc2)[C@@H]3C)n1` [Compound 20, (R)-[1,1′-biphenyl]-4-yl(8-methyl-3-(4-methylthiazol-2-yl)-5,6-dihydro-[1,2,4]triazolo[4,3-a]pyrazin-7(8H)-yl)methanone] showed an IC50 [6] of 11 nM and a Ki [7, 10] of 12 nM.

With `Cc1csc(-c2nnc3n2CCN(C(=O)c2ccc(-c4ccccc4)cc2)C3)n1` [Compound 21, [1,1′-biphenyl]-4-yl(3-(4-methylthiazol-2-yl)-5,6-dihydro-[1,2,4]triazolo[4,3-a]pyrazin-7(8H)-yl)methanone] the IC50 [6] was 33 nM and the Ki [7, 10] was 38 nM.

With `Cc1nc(-c2nnc3n2CCN(C(=O)c2ccc(-c4cccs4)cc2)[C@@H]3C)sc1C` [Compound 22, (R)-(3-(4,5-dimethylthiazol-2-yl)-8-methyl-5,6-dihydro-[1,2,4]triazolo[4,3-a]pyrazin-7(8H)-yl)(4-(thiophen-2-yl)phenyl)methanone] the IC50 [6] was 21 nM, the Ki [7, 10] was 21 nM and the IC50 [5] was 12000 nM.

In the case of `Cc1noc(-c2nnc3n2CCN(C(=O)c2ccc(-c4cccs4)cc2)[C@@H]3C)n1` [Compound 23, (R)-(8-methyl-3-(3-methyl-1,2,4-oxadiazol-5-yl)-5,6-dihydro-[1,2,4]triazolo[4,3-a]pyrazin-7(8H)-yl)(4-(thiophen-2-yl)phenyl)methanone], the inhibition at 10 µM ([3]; read-out: NK1 % inhibition at 10 μM, for the racemate) is reported as < 10%, the Ki [3, 12] is reported as > 10000 nM and the inhibition at 10 µM ([4]; read-out: NK2 % inhibition at 10 μM, for the racemate) is reported as < 25%. The Ki [4, 13] was > 10000 nM.

`CC(C)c1nsc(-c2nnc3n2CCN(C(=O)c2ccc(-c4cccs4)cc2)[C@@H]3C)n1` [Compound 25, (R)-(3-(3-isopropyl-1,2,4-thiadiazol-5-yl)-8-methyl-5,6-dihydro-[1,2,4]triazolo[4,3-a]pyrazin-7(8H)-yl)(4-(thiophen-2-yl)phenyl)methanone] gave an IC50 [6] of 3 nM and a Ki [7, 10] of 3 nM.

`Cc1coc(-c2nnc3n2CCN(C(=O)c2ccc(-c4ccccc4)cc2)[C@@H]3C)n1` [Compound 27, (R)-[1,1′-biphenyl]-4-yl(8-methyl-3-(4-methyloxazol-2-yl)-5,6-dihydro-[1,2,4]triazolo[4,3-a]pyrazin-7(8H)-yl)methanone] gave an IC50 [6] of 51 nM and a Ki [7, 10] of 51 nM.

Compound `Cc1cc(-c2nnc3n2CCN(C(=O)c2ccc(-c4cccs4)cc2)[C@@H]3C)n(C)n1` [Compound 28, (R)-(3-(1,3-dimethyl-1H-pyrazol-5-yl)-8-methyl-5,6-dihydro-[1,2,4]triazolo[4,3-a]pyrazin-7(8H)-yl)(4-(thiophen-2-yl)phenyl)methanone] has an IC50 [6] of 37 nM and a Ki [7, 10] of 68 nM.

With `Cc1cccc(-c2nnc3n2CCN(C(=O)c2ccc(-c4ccccc4)cc2)[C@@H]3C)n1` [Compound 29, (R)-[1,1′-biphenyl]-4-yl(8-methyl-3-(6-methylpyridin-2-yl)-5,6-dihydro-[1,2,4]triazolo[4,3-a]pyrazin-7(8H)-yl)methanone] the IC50 [6] was 18 nM and the Ki [7, 10] was 23 nM.

`Cc1cccc(-c2nnc3n2CCN(C(=O)c2ccc(-c4cccs4)cc2)[C@@H]3C)n1` [Compound 30, (R)-(8-methyl-3-(6-methylpyridin-2-yl)-5,6-dihydro-[1,2,4]triazolo[4,3-a]pyrazin-7(8H)-yl)(4-(thiophen-2-yl)phenyl)methanone] gave an IC50 [6] of 11 nM, a Ki [7, 10] of 10 nM and a Ki [7, 11] of 10 nM. For the same compound, the Ki [3, 8] was 17200 nM and the Ki [4, 9] was 5930 nM.

Work on `C[C@@H]1c2nnc(-c3cccc(O)n3)n2CCN1C(=O)c1ccc(-c2cccs2)cc1` [Compound 31, (R)-(3-(6-hydroxypyridin-2-yl)-8-methyl-5,6-dihydro-[1,2,4]triazolo[4,3-a]pyrazin-7(8H)-yl)(4-(thiophen-2-yl)phenyl)methanone] yielded an IC50 [6] of 18 nM, a Ki [7, 10] of 22 nM and a Ki [7, 11] of 22 nM. The Ki [3, 8] was > 10000 nM, the Ki [4, 9] was > 10000 nM and the IC50 [5] was 20000 nM.
